What was measured:
blackgrass = test: Test B pre/postemergence blackgrass; assay type: in vivo, Alopecurus myosuroides
Outline: (§1)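 Herbicidal effect was estimated by eye on a ten-point control scale after plants spent twelve to sixteen days in a greenhouse following soil or foliar treatment. Foliar sprays targeted plants at one to four leaves; all doses were formulated in a non-phytotoxic solvent with surfactant.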

surinam grass = test: Test B pre/postemergence surinam grass; assay type: in vivo, Brachiaria decumbens
Outline: as §1

cocklebur = test: Test B pre/postemergence cocklebur; assay type: in vivo, Xanthium strumarium
Outline: as §1

corn = test: Test B pre/postemergence corn; assay type: in vivo, Zea mays
Outline: as §1

crabgrass = test: Test B pre/postemergence crabgrass; assay type: in vivo, Digitaria sanguinalis
Outline: as §1

giant foxtail = test: Test B pre/postemergence giant foxtail; assay type: in vivo, Setaria faberii
Outline: as §1

morningglory = test: Test B pre/postemergence morningglory; assay type: in vivo, Ipomoea hederacea
Outline: as §1

pigweed = test: Test B pre/postemergence pigweed; assay type: in vivo, Amaranthus retroflexus
Outline: as §1

rape = test: Test B pre/postemergence rape; assay type: in vivo, Brassica napus
Outline: as §1

soybean = test: Test B pre/postemergence soybean; assay type: in vivo, Glycine max
Outline: as §1

sugar beet = test: Test B pre/postemergence sugar beet; assay type: in vivo, Beta vulgaris
Outline: as §1

velvetleaf = test: Test B pre/postemergence velvetleaf; assay type: in vivo, Abutilon theophrasti
Outline: as §1

wheat = test: Test B pre/postemergence wheat; assay type: in vivo, Triticum aestivum
Outline: as §1

wild oat = test: Test B pre/postemergence wild oat; assay type: in vivo, Avena fatua
Outline: as §1

purple nutsedge = test: Test B pre/postemergence purple nutsedge; assay type: in vivo, Cyperus rotundus
Outline: as §1

rice = test: Test B flood test rice; assay type: in vivo, Oryza sativa
Outline: (§2)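 Each value is a visual injury score relative to controls, with 10 meaning complete control and 0 no effect. Evaluation took place twelve to sixteen days after the 2-leaf-stage plants were treated and kept in the greenhouse.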

smallflower flatsedge = test: Test B flood test smallflower flatsedge; assay type: in vivo, Cyperus difformis
Outline: as §2

duck salad = test: Test B flood test duck salad; assay type: in vivo, Heteranthera limosa
Outline: as §2

bamyardgrass = test: Test B flood test barnyardgrass; assay type: in vivo, Echinochloa crus-galli
Outline: as §2

[1] = Postemergence, Rate 125 g/ha, scale 0 to 10, 0 is no effect, 10 is complete control
[2] = Postemergence, Rate 500 g/ha, scale 0 to 10, 0 is no effect, 10 is complete control
[3] = Preemergence, Rate 62 g/ha, scale of 0 to 10 where 0 is no effect and 10 is complete control
[4] = Preemergence, Rate 125 g/ha, scale 0 to 10, 0 is no effect, 10 is complete control
[5] = Preemergence, Rate 250 g/ha, scale 0 to 10, 0 is no effect, 10 is complete control
[6] = Preemergence, Rate 500 g/ha, scale of 0 to 10 where 0 is no effect and 10 is complete control
[7] = Rate 62 g/ha, Postemergence, scale 0 to 10, 0 no effect, 10 complete control
[8] = Postemergence, Rate 250 g/ha, scale 0 to 10
[9] = Rate 62 g/ha, flood test species, Pre-emergence, visual evaluation after twelve to sixteen days
[10] = Rate 125 g/ha, under heading Pre-emergence, flood test species, visual evaluation after twelve to sixteen days
[11] = Rate 250 g/ha, Pre-emergence (flood test species), scale 0 to 10, 0 is no effect, 10 is complete control
[12] = Rate 500 g/ha, Pre-emergence section of Table B, 0 to 10 scale (0 no effect, 10 complete control)

C=C(Cn1c(=O)on(C(=O)N(c2ccccc2)C(C)C)c1=O)c1cccnc1 [Compound 498]
Blackgrass plant response rating (blackgrass; [1]): 0 | Plant response rating, Blackgrass (blackgrass; [2]): 5 | Plant response rating, Blackgrass (blackgrass; [3]): 0 | Blackgrass plant response rating (blackgrass; [4]): 0 | Blackgrass plant response rating (blackgrass; [5]): 0 | Blackgrass plant response rating (blackgrass; [6]): 0 | Blackgrass plant response rating (blackgrass; [7]): 0 | B. signalgrass plant response rating (surinam grass; [1]): 0 | B. signalgrass plant response rating (surinam grass; Postemergence, Rate 250 g/ha, scale 0 to 10, 0 no effect, 10 complete control): 0 | Plant response rating, B. signalgrass (surinam grass; [2]): 0 | Plant response rating, B. signalgrass (surinam grass; [3]): 0 | B. signalgrass plant response rating (surinam grass; [4]): 0 | B. signalgrass plant response rating (surinam grass; [5]): 0 | B. signalgrass plant response rating (surinam grass; Preemergence, Rate 500 g/ha, scale 0 to 10, 0 is no effect, 10 is complete control): 0 | B. signalgrass plant response rating (surinam grass; [7]): 0 | Cocklebur plant response rating (cocklebur; [1]): 0 | Cocklebur plant response rating (cocklebur; [8]): 0 | Plant response rating, Cocklebur (cocklebur; [2]): 0 | Plant response rating, Cocklebur (cocklebur; [3]): 0 | Cocklebur plant response rating (cocklebur; [4]): 0 | Cocklebur plant response rating (cocklebur; [5]): 0 | Cocklebur plant response rating (cocklebur; [6]): 0 | Cocklebur plant response rating (cocklebur; [7]): 0 | Corn plant response rating (corn; [1]): 0 | Corn plant response rating (corn; [8]): 0 | Plant response rating, Corn (corn; [2]): 0 | Plant response rating, Corn (corn; [3]): 0 | Corn plant response rating (corn; [4]): 0 | Corn plant response rating (corn; [6]): 0 | Corn plant response rating (corn; [7]): 0 | Crabgrass plant response rating (crabgrass; [8]): 0 | Plant response rating, Crabgrass (crabgrass; [2]): 2 | Plant response rating, Crabgrass (crabgrass; [3]): 0 | Crabgrass plant response rating (crabgrass; [4]): 2 | Crabgrass plant response rating (crabgrass; [6]): 5 | Crabgrass plant response rating (crabgrass; [7]): 0 | Giant foxtail plant response rating (giant foxtail; [1]): 2 | Plant response rating, Giant foxtail (giant foxtail; [2]): 3 | Plant response rating, Giant foxtail (giant foxtail; [3]): 0 | Giant foxtail plant response rating (giant foxtail; [4]): 2 | Giant foxtail plant response rating (giant foxtail; [6]): 8 | Giant foxtail plant response rating (giant foxtail; [7]): 0 | Morningglory plant response rating (morningglory; [1]): 3 | Plant response rating, Morningglory (morningglory; [2]): 4 | Plant response rating, Morningglory (morningglory; [3]): 0 | Morningglory plant response rating (morningglory; [4]): 0 | Morningglory plant response rating (morningglory; [6]): 0 | Morningglory plant response rating (morningglory; [7]): 1 | Redroot pigweed plant response rating (pigweed; [1]): 0 | Plant response rating, Redroot pigweed (pigweed; [2]): 0 | Plant response rating, Redroot pigweed (pigweed; [3]): 0 | Redroot pigweed plant response rating (pigweed; [4]): 0 | Redroot pigweed plant response rating (pigweed; [6]): 0 | Redroot pigweed plant response rating (pigweed; [7]): 0 | Rape plant response rating (rape; [1]): 0 | Plant response rating, Rape (rape; [2]): 0 | Plant response rating, Rape (rape; [3]): 0 | Rape plant response rating (rape; [4]): 0 | Rape plant response rating (rape; [6]): 0 | Rape plant response rating (rape; [7]): 0 | Soybean plant response rating (soybean; [1]): 1 | Plant response rating, Soybean (soybean; [2]): 1 | Plant response rating, Soybean (soybean; [3]): 0 | Soybean plant response rating (soybean; [4]): 0 | Soybean plant response rating (soybean; [6]): 0 | Soybean plant response rating (soybean; [7]): 1 | Sugarbeets plant response rating (sugar beet; [1]): 0 | Plant response rating, Sugarbeets (sugar beet; [2]): 0 | Plant response rating, Sugarbeets (sugar beet; [3]): 0 | Sugarbeets plant response rating (sugar beet; [4]): 0 | Sugarbeets plant response rating (sugar beet; [6]): 0 | Sugarbeets plant response rating (sugar beet; [7]): 0 | Velvetleaf plant response rating (velvetleaf; [1]): 0 | Plant response rating, Velvetleaf (velvetleaf; [2]): 2 | Plant response rating, Velvetleaf (velvetleaf; [3]): 0 | Velvetleaf plant response rating (velvetleaf; [4]): 0 | Velvetleaf plant response rating (velvetleaf; [6]): 0 | Velvetleaf plant response rating (velvetleaf; [7]): 0 | Wheat plant response rating (wheat; [1]): 0 | Plant response rating, Wheat (wheat; [2]): 0 | Plant response rating, Wheat (wheat; [3]): 0 | Wheat plant response rating (wheat; [4]): 0 | Wheat plant response rating (wheat; [6]): 0 | Wheat plant response rating (wheat; [7]): 0 | Wild oats plant response rating (wild oat; [1]): 0 | Plant response rating, Wild oats (wild oat; [2]): 0 | Plant response rating, Wild oats (wild oat; [3]): 0 | Wild oats plant response rating (wild oat; [4]): 0 | Wild oats plant response rating (wild oat; [6]): 0 | Wild oats plant response rating (wild oat; [7]): 0 | Nutsedge plant response rating (purple nutsedge; [1]): 0 | Plant response rating, Nutsedge (purple nutsedge; [2]): 0 | Plant response rating, Nutsedge (purple nutsedge; [3]): 0 | Nutsedge plant response rating (purple nutsedge; [4]): 0 | Nutsedge plant response rating (purple nutsedge; [6]): 0 | Nutsedge plant response rating (purple nutsedge; [7]): 0 | Plant response rating, Rice (0 to 10 scale, 0 is no effect, 10 is complete control) (rice; [9]): 0 | Rice plant response rating (0 to 10 scale, 0 is no effect, 10 is complete control) (rice; [10]): 0 | Rice plant response rating (rice; [11]): 0 | Rice plant response rating (rice; [12]): 0 | Plant response rating, S. Flatsedge (0 to 10 scale, 0 is no effect, 10 is complete control) (smallflower flatsedge; [9]): 0 | S. Flatsedge plant response rating (0 to 10 scale, 0 is no effect, 10 is complete control) (smallflower flatsedge; [10]): 0 | S. Flatsedge plant response rating (smallflower flatsedge; [11]): 0 | S. Flatsedge plant response rating (smallflower flatsedge; [12]): 0 | Plant response rating, Ducksalad (0 to 10 scale, 0 is no effect, 10 is complete control) (duck salad; [9]): 0 | Ducksalad plant response rating (0 to 10 scale, 0 is no effect, 10 is complete control) (duck salad; [10]): 0 | Ducksalad plant response rating (duck salad; [11]): 0 | Ducksalad plant response rating (duck salad; [12]): 0 | Plant response rating, Barnyardgrass (0 to 10 scale, 0 is no effect, 10 is complete control) (bamyardgrass; [9]): 0 | Barnyardgrass plant response rating (0 to 10 scale, 0 is no effect, 10 is complete control) (bamyardgrass; [10]): 0 | Barnyardgrass plant response rating (bamyardgrass; [11]): 0 | Barnyardgrass plant response rating (bamyardgrass; [12]): 0
